Laboratory results as given in PubChem BioAssay (NCI).
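96-well plates; 48 h exposure; 5 concentrations. Endpoints by linear interpolation between flanking doses. Not reached: highest tested concentration assigned. The concentration for 50% growth inhibition is given as GI50. The concentration for full growth arrest is given as TGI.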

Experiments:
Experiment in all cases: inhibition of tumour cell growth, NCI panel, 48 h
786-0 renal = test system: 786-0 renal
A498 renal = test system: A498 renal
ACHN renal = test system: ACHN renal
BT-549 breast = test system: BT-549 breast
CAKI-1 renal = test system: CAKI-1 renal
CCRF-CEM leukemia = test system: CCRF-CEM leukemia
COLO 205 colon = test system: COLO 205 colon
DU-145 prostate = test system: DU-145 prostate
EKVX NSCLC = test system: EKVX NSCLC
HCC-2998 colon = test system: HCC-2998 colon
HCT-15 colon = test system: HCT-15 colon
HL-60(TB) leukemia = test system: HL-60(TB) leukemia
HOP-62 NSCLC = test system: HOP-62 NSCLC
HOP-92 NSCLC = test system: HOP-92 NSCLC
HS 578T breast = test system: HS 578T breast
HT29 colon = test system: HT29 colon
IGROV1 ovarian = test system: IGROV1 ovarian
KM12 colon = test system: KM12 colon
LOX IMVI melanoma = test system: LOX IMVI melanoma
MALME-3M melanoma = test system: MALME-3M melanoma
MDA-MB-231 breast = test system: MDA-MB-231 breast
MDA-MB-435 = test system: MDA-MB-435
MDA-MB-468 breast = test system: MDA-MB-468 breast
NCI-H226 lung = test system: NCI-H226 lung
NCI-H23 lung = test system: NCI-H23 lung
NCI-H522 lung = test system: NCI-H522 lung
NCI/ADR-RES ovarian = test system: NCI/ADR-RES ovarian
OVCAR-3 ovarian = test system: OVCAR-3 ovarian
OVCAR-4 ovarian = test system: OVCAR-4 ovarian
OVCAR-5 ovarian = test system: OVCAR-5 ovarian
OVCAR-8 ovarian = test system: OVCAR-8 ovarian
PC-3 prostate = test system: PC-3 prostate
RXF 393 renal = test system: RXF 393 renal
SF-268 CNS = test system: SF-268 CNS
SF-295 CNS = test system: SF-295 CNS
SF-539 CNS = test system: SF-539 CNS
SK-MEL-2 melanoma = test system: SK-MEL-2 melanoma
SK-MEL-28 melanoma = test system: SK-MEL-28 melanoma
SK-MEL-5 melanoma = test system: SK-MEL-5 melanoma
SK-OV-3 ovarian = test system: SK-OV-3 ovarian
SN12C renal = test system: SN12C renal
SNB-19 CNS = test system: SNB-19 CNS
SNB-75 CNS = test system: SNB-75 CNS
TK-10 renal = test system: TK-10 renal
UACC-257 melanoma = test system: UACC-257 melanoma
UACC-62 melanoma = test system: UACC-62 melanoma
UO-31 renal = test system: UO-31 renal

Compound Cn1cc(/C=N/Nc2ccnc3cc(Cl)ccc23)c2ccccc21 has a GI50 (786-0 renal) of 274 nM, a TGI (786-0 renal) of 717 nM and a GI50 (A498 renal) of 1970 nM. The TGI (A498 renal) was 3500 nM, the GI50 (ACHN renal) was 1370 nM and the TGI (ACHN renal) was 2670 nM. The GI50 (BT-549 breast) was 1620 nM, the TGI (BT-549 breast) was 3110 nM and the GI50 (CAKI-1 renal) was 1300 nM. For the same compound, the TGI (CAKI-1 renal) was 2650 nM, the GI50 (CCRF-CEM leukemia) was 281 nM and the TGI (CCRF-CEM leukemia) was 799 nM. The GI50 (COLO 205 colon) was 1210 nM, the TGI (COLO 205 colon) was 2660 nM and the GI50 (DU-145 prostate) was 978 nM. For the same compound, the TGI (DU-145 prostate) was 2400 nM, the GI50 (EKVX NSCLC) was 1260 nM and the TGI (EKVX NSCLC) was 2580 nM. The GI50 (HCC-2998 colon) was 669 nM, the TGI (HCC-2998 colon) was 1950 nM and the GI50 (HCT-15 colon) was 293 nM. It also gave a TGI (HCT-15 colon) of 823 nM, a GI50 (HL-60(TB) leukemia) of 205 nM and a TGI (HL-60(TB) leukemia) of 466 nM. For the same compound, the GI50 (HOP-62 NSCLC) was 1520 nM, the TGI (HOP-62 NSCLC) was 3130 nM and the GI50 (HOP-92 NSCLC) was 1420 nM. It also gave a TGI (HOP-92 NSCLC) of 3000 nM, a GI50 (HS 578T breast) of 1480 nM and a TGI (HS 578T breast) of 3490 nM. For the same compound, the GI50 (HT29 colon) was 185 nM, the TGI (HT29 colon) was 338 nM and the GI50 (IGROV1 ovarian) was 1410 nM. For the same compound, the TGI (IGROV1 ovarian) was 2820 nM, the GI50 (KM12 colon) was 1650 nM and the TGI (KM12 colon) was 3150 nM. It also gave a GI50 (LOX IMVI melanoma) of 175 nM, a TGI (LOX IMVI melanoma) of 323 nM and a GI50 (MALME-3M melanoma) of 1580 nM. It also gave a TGI (MALME-3M melanoma) of 3020 nM, a GI50 (MDA-MB-231 breast) of 202 nM and a TGI (MDA-MB-231 breast) of 488 nM. For the same compound, the GI50 (MDA-MB-435) was 609 nM, the TGI (MDA-MB-435) was 1910 nM and the GI50 (MDA-MB-468 breast) was 239 nM. The TGI (MDA-MB-468 breast) was 563 nM, the GI50 (NCI-H226 lung) was 1500 nM and the TGI (NCI-H226 lung) was 3250 nM. It also gave a GI50 (NCI-H23 lung) of 1210 nM, a TGI (NCI-H23 lung) of 2520 nM and a GI50 (NCI-H522 lung) of 1320 nM. The TGI (NCI-H522 lung) was 2750 nM, the GI50 (NCI/ADR-RES ovarian) was 1040 nM and the TGI (NCI/ADR-RES ovarian) was 2480 nM. It also gave a GI50 (OVCAR-3 ovarian) of 206 nM, a TGI (OVCAR-3 ovarian) of 468 nM and a GI50 (OVCAR-4 ovarian) of 531 nM. It also gave a TGI (OVCAR-4 ovarian) of 1200 nM, a GI50 (OVCAR-5 ovarian) of 1680 nM and a TGI (OVCAR-5 ovarian) of 3060 nM. The GI50 (OVCAR-8 ovarian) was 1630 nM, the TGI (OVCAR-8 ovarian) was 3290 nM and the GI50 (PC-3 prostate) was 1150 nM. For the same compound, the TGI (PC-3 prostate) was 2670 nM, the GI50 (RXF 393 renal) was 1530 nM and the TGI (RXF 393 renal) was 3000 nM. For the same compound, the GI50 (SF-268 CNS) was 1720 nM, the TGI (SF-268 CNS) was 3590 nM and the GI50 (SF-295 CNS) was 1230 nM. It also gave a TGI (SF-295 CNS) of 2530 nM, a GI50 (SF-539 CNS) of 181 nM and a TGI (SF-539 CNS) of 342 nM. It also gave a GI50 (SK-MEL-2 melanoma) of 1600 nM, a TGI (SK-MEL-2 melanoma) of 3040 nM and a GI50 (SK-MEL-28 melanoma) of 1700 nM. The TGI (SK-MEL-28 melanoma) was 3090 nM, the GI50 (SK-MEL-5 melanoma) was 1450 nM and the TGI (SK-MEL-5 melanoma) was 2770 nM. It also gave a GI50 (SK-OV-3 ovarian) of 1390 nM, a TGI (SK-OV-3 ovarian) of 2900 nM and a GI50 (SN12C renal) of 1520 nM. The TGI (SN12C renal) was 2920 nM, the GI50 (SNB-19 CNS) was 1050 nM and the TGI (SNB-19 CNS) was 2490 nM. The GI50 (SNB-75 CNS) was 639 nM, the TGI (SNB-75 CNS) was 2180 nM and the GI50 (TK-10 renal) was 2520 nM. The TGI (TK-10 renal) was 4040 nM, the GI50 (UACC-257 melanoma) was 1550 nM and the TGI (UACC-257 melanoma) was 2970 nM. For the same compound, the GI50 (UACC-62 melanoma) was 1540 nM, the TGI (UACC-62 melanoma) was 2970 nM and the GI50 (UO-31 renal) was 1240 nM. For the same compound, the TGI (UO-31 renal) was 2520 nM.
